Experiments:
[1] = molecular target: Protein kinase C theta type (Homo sapiens, UniProt Q04759); test: Inhibition of human PKC theta assessed as inhibition of [33P] incorporation into substrate after 60 mins by scintillation counting
[2] = molecular target: T1, 3-phosphoinositide-dependent protein kinase 1 (Homo sapiens, UniProt O15530); test: Inhibition of human PDK1 assessed as inhibition of [33P] incorporation into substrate after 60 mins by scintillation counting
T1 sequence (O15530 whole entry): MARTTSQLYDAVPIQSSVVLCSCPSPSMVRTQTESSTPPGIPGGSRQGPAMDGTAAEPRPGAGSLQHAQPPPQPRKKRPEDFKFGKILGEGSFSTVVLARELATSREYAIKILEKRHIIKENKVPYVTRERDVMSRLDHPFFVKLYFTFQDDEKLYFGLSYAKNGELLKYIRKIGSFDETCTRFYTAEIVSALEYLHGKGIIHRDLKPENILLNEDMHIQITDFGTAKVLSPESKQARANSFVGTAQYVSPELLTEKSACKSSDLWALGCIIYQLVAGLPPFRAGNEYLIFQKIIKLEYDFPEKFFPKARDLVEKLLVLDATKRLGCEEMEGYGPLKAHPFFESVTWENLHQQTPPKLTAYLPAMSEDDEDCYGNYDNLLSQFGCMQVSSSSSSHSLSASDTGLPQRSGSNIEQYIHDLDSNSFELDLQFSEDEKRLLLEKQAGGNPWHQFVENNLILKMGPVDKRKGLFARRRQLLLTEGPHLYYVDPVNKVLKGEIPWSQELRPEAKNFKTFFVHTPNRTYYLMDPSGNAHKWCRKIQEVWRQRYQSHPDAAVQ

[3] = molecular target: Protein kinase C alpha type (Homo sapiens, UniProt P17252); test: Inhibition of human PKC alpha assessed as inhibition of [33P] incorporation into substrate after 60 mins by scintillation counting

Protein kinase C theta type, sequence (Q04759 whole entry): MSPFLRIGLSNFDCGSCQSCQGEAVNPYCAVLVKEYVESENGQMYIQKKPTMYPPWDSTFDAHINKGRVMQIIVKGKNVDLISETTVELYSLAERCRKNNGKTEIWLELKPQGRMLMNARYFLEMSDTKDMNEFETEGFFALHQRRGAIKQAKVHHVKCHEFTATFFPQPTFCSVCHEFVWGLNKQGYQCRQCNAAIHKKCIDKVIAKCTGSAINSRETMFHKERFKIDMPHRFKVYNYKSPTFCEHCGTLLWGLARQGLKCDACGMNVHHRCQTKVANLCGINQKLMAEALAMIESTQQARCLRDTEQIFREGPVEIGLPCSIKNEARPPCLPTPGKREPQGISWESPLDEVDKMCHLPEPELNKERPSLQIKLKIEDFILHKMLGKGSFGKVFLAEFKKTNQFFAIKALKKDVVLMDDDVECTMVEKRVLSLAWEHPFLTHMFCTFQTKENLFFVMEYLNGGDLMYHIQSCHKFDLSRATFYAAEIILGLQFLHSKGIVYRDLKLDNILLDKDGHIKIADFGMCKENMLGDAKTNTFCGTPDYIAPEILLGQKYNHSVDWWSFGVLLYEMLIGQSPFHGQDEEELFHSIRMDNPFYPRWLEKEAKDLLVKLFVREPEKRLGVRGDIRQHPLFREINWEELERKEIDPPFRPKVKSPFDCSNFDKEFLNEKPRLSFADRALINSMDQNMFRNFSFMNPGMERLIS

| SMILES | IC50 [1] | IC50 [2] | IC50 [3] |
| --- | --- | --- | --- |
| COc1cc(O)c(CC=C(C)C)c2c1C(=O)CC(c1ccc(O)cc1)O2 (stereo unspecified) [ISOXANTHOHUMOL] | 31.6 µM | 58.7 µM | 45.3 µM |
| COc1cc(O)c(CC=C(C)C)c(O)c1C(=O)/C=C/c1ccc(O)cc1 [XANTHOHUMOL] | > 100 µM | 6.6 µM | > 100 µM |

From ChEMBL document CHEMBL2034881, “Inverse Virtual Screening allows the discovery of the biological activity of natural compounds” (Bioorg Med Chem, 2012)
